The text below walks through data of EP4389751A1, “HETEROCYCLIC COMPOUNDS AND USES THEREOF” (Kumquat Biosciences Inc., priority 2021, dated 2024).

Each structure is given as a SMILES string. Like-named read-outs stand apart in the source and are kept apart here.

One assay deals with T1, K-Ras G12S (Homo sapiens, UniProt P01116, G12S).
T1 construct: made in house; host or cells: E. coli (e.g., BL21 (DE3))
The assay is described as follows: HTRF assay of the K-Ras / SOS1 interaction. Format: biochemical. The following applies: IC50 (against K-Ras G12D) to IC50 (against K-Ras G12S). In outline:
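Compounds (duplicates, 10 µM to 0.01 µM) were incubated ≥~10 min with Eu-labelled GST-K-Ras G12S and XL665-labelled His-hSOS1 in HEPES pH 7.4 buffer containing NaCl, DTT, BSA and Igepal. Disruption measured as HTRF emission ratio 665/620 nm, fitted to IC50.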

A further assay concerns GP2D cells. In words: Cell proliferation assay (CellTiter-Glo), K-Ras G12D cells. Format: cell-based. The following applies: read-out: Inhibition of GP2D Cells (IC50). In a few lines: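 CellTiter-Glo luminescence, taken roughly 5 days after dosing, measured growth of G12D-mutant GP2D cells in DMEM/2 mM glutamine/10% FBS. Compound dilution series (e.g., 9 points, 3-fold) added the day after plating. Four-parameter fitting gave IC50.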

For another assay, the system named is A549 cells. The assay is described as follows: Cell proliferation assay (CellTiter-Glo), K-Ras G12S cells. Format: cell-based. The following applies: for IC50: Homo sapiens. Here is the method: A549 (ATCC CRL-185) and LS123 (ATCC CRL-255) cell lines comprise a G12S mutation and can be used to assess Ras cellular signaling in vitro, e.g., in response to the compounds herein. A549 culture medium is prepared with RPMI-1640 and 10% heat-inactivated FBS. LS123 culture medium is prepared with RPMI-1640 and 10% heat-inactivated FBS. A CellTiter-Glo (CTG) luminescent based assay (Promega) is used to assess growth of the cells, as a measurement of the ability of the compounds herein to inhibit Ras signaling in the cells. The cells (e.g., 800 per well) are seeded in their respective culture medium in standard tissue culture-treated 384-well format plates (Falcon #08-772-116) or ultra-low attachment surface 384-well format plates (S-Bio # MS-9384WZ). The day after plating, cells are treated with a dilution series (e.g., a 10 point 3-fold dilution series) of the compounds herein (e.g., approximately 40 µl final volume per well). Cell viability can be monitored (e.g., approximately 6 days later) according to the manufacturer's recommended instructions, where the CellTiter-Glo reagent is added (e.g., approximately 10 µl), vigorously mixed, covered, and placed on a plate shaker (e.g., approximately for 20 min) to ensure sufficient cell lysis prior to assessment of luminescent signal. The IC50 values are determined using the four parameter fit. The resulting IC50 value is a measurement of the ability of the compounds herein to reduce cell growth of Ras-driven cells (e.g., tumor cell lines) in vitro and/or in vivo.

[1] abbreviates: A549, A549 cells (K-Ras G12S), bin 500 nM to 5 µM, read-out: Inhibition of A549 Cells (IC50).
[2] abbreviates: A549, read-out: Inhibition of A549 Cells (IC50).
Where [3] appears, read: A549, A549 cells (K-Ras G12S), bin ≤ 500 nM, read-out: Inhibition of A549 Cells (IC50).

T1 sequence (P01116 1-188 isoform P01116-2 G12S): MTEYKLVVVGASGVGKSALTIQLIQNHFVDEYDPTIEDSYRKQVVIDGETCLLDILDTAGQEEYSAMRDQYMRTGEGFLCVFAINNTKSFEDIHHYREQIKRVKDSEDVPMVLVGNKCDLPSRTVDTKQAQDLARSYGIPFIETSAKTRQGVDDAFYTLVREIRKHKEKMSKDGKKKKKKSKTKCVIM

A word on the IC50: it is the concentration needed to halve the response being measured. Consider `Nc1nc2c(-c3c(Cl)cc4c(N5CC6CCC(C5)N6C(=O)n5cncn5)nc(OC[C@@]56CCCN5C[C@H](F)C6)nc4c3F)ccc(F)c2s1` [Compound A111, (3-(7-(2-amino-7-fluorobenzo[d]thiazol-4-yl)-6-chloro-8-fluoro-2-(((2R,7aS)-2-fluorotetrahydro-1H-pyrrolizin-7a(5H)-yl)methoxy)quinazolin-4-yl)-3,8-diazabicyclo[3.2.1]octan-8-yl)(1H-1,2,4-triazol-1-yl)methanone], for which, on K-Ras G12S, the “Ratio of IC50 KRAS G12D vs. IC50 KRAS G12S” value was “A (A: indicates that the ratio of IC50 against KrasG12D vs. IC50 against KrasG12S is 1-fold or greater)”. Also, the IC50 in the assay with GP2D cells (GP2D cells (K-Ras G12D)) is at most 1 µM; in the assay on A549 cells (setting [1]) it was 0.5 to 5 µM.

With `N#Cc1c(N)sc2c(F)ccc(-c3c(Cl)cc4c(N5CC6CCC(C5)N6C(=O)n5cc(C(F)(F)F)cn5)nc(OC[C@@]56CCCN5C[C@H](F)C6)nc4c3F)c12` [Compound A122, 2-amino-4-(6-chloro-8-fluoro-2-(((2R,7aS)-2-fluorotetrahydro-1H-pyrrolizin-7 a(5H)-yl)methoxy)-4-(8-(4-(trifluoromethyl)-1H-pyrazole-1-carbonyl)-3,8-diazabicyclo[3.2.1]octan-3-yl)quinazolin-7-yl)-7-fluorobenzo[b]thiophene-3-carbonitrile], the “Ratio of IC50 KRAS G12D vs. IC50 KRAS G12S” value on K-Ras G12S is “A (A: indicates that the ratio of IC50 against KrasG12D vs. IC50 against KrasG12S is 1-fold or greater)”. For the same molecule, the IC50 with GP2D cells (GP2D cells (K-Ras G12D)) was at most 1 µM; in the assay with A549 cells (setting [1]), 0.5 to 5 µM.

Consider `Nc1nc2c(-c3c(Cl)cc4c(N5CC6CCC(C5)N6C(=O)n5ccnn5)nc(OC[C@@]56CCCN5C[C@H](F)C6)nc4c3F)ccc(F)c2s1` [Compound A153, (3-(7-(2-amino-7-fluorobenzo[d]thiazol-4-yl)-6-chloro-8-fluoro-2-(((2R,7aS)-2-fluorotetrahydro-1H-pyrrolizin-7a(5H)-yl)methoxy)quinazolin-4-yl)-3,8-diazabicyclo[3.2.1]octan-8-yl)(1H-1,2,3-triazol-1-yl)methanone], for which the “Ratio of IC50 KRAS G12D vs. IC50 KRAS G12S” value at K-Ras G12S is given as “A (A: indicates that the ratio of IC50 against KrasG12D vs. IC50 against KrasG12S is 1-fold or greater)”. The IC50 with GP2D cells (GP2d) was at most 1 µM; in the assay with A549 cells (setting [2]), 0.5 to 5 µM.

As to `C#Cc1c(F)ccc2cc(O)cc(-c3ncc4c(N5CCOCC6(CN(C(=O)n7cncn7)C6)C5)nc(OC[C@@]56CCCN5C[C@H](F)C6)nc4c3F)c12` [Compound A158, (9-(7-(8-ethynyl-7-fluoro-3-hydroxynaphthalen-1-yl)-8-fluoro-2-(((2R,7aS)-2-fluorotetrahydro-1H-pyrrolizin-7a(5H)-yl)methoxy)pyrido[4,3-d]pyrimidin-4-yl)-6-oxa-2,9-diazaspiro[3.6]decan-2-yl)(1H-1,2,4-triazol-1-yl)methanone], the “Ratio of IC50 KRAS G12D vs. IC50 KRAS G12S” value on K-Ras G12S was “A (A: indicates that the ratio of IC50 against KrasG12D vs. IC50 against KrasG12S is 1-fold or greater)”. Further, the figures for the IC50 in the assay with GP2D cells (GP2D cells (K-Ras G12D)) and in the assay with A549 cells (setting [1]) were 1 to 10 µM and 0.5 to 5 µM, respectively.

Take `Cc1ncn(C(=O)N2CCCC(Oc3nc(OC[C@@]45CCCN4C[C@H](F)C5)nc4c(F)c(-c5ccc(F)c6sc(N)c(C#N)c56)c(Cl)cc34)CC2)n1` (stereo partly drawn) [Compound A174, 2-amino-4-(6-chloro-8-fluoro-2-(((2R,7aS)-2-fluorotetrahydro-1H-pyrrolizin-7 a(5H)-yl)methoxy)-4-((1-(3-methyl-1H-1 ,2,4-triazole-1-carbonyl)azepan-4-yl)oxy)quinazolin-7-yl)-7-fluorobenzo[b]thiophene-3-carbonitrile]: at K-Ras G12S, the “Ratio of IC50 KRAS G12D vs. IC50 KRAS G12S” value is “A (A: indicates that the ratio of IC50 against KrasG12D vs. IC50 against KrasG12S is 1-fold or greater)”. For the same molecule, the half-maximal inhibitory concentration (IC50) lay within 1 to 10 µM with GP2D cells (GP2D cells (K-Ras G12D)) and 0.5 to 5 µM in the assay on A549 cells (setting [1]).

As to `N#Cc1c(N)sc2c(F)ccc(-c3c(Cl)cc4c(N5CC6CCN(C(=O)n7cncn7)C6C5)nc(OC[C@@]56CCCN5C[C@H](F)C6)nc4c3F)c12` (stereo partly drawn) [Compound A180, 4-(4-(1-(1H-1,2,4-triazole-1-carbonyl)hexahydropyrrolo[3,4-b]pyrrol-5(1H)-yl)-6-chloro-8-fluoro-2-(((2R,7aS)-2-fluorotetrahydro-1H-pyrrolizin-7a(5H)-yl)methoxy)quinazolm-7-yl)-2-amino-7-fluorobenzo[b]thiophene-3-carbonitrile], the “Ratio of IC50 KRAS G12D vs. IC50 KRAS G12S” value on K-Ras G12S is on record as “A (A: indicates that the ratio of IC50 against KrasG12D vs. IC50 against KrasG12S is 1-fold or greater)”. The results for the IC50 in the assay on GP2D cells (GP2D cells (K-Ras G12D)) and with A549 cells (setting [3]) were 1 to 10 µM and at most 0.5 µM, respectively.

In the case of `N#Cc1c(N)sc2c(F)ccc(-c3c(Cl)cc4c(N5CCCC6C5CCN6C(=O)n5cncn5)nc(OC[C@@]56CCCN5C[C@H](F)C6)nc4c3F)c12` (stereo partly drawn) [Compound A184, 4-(4-(1-(1H-1,2,4-triazole-1-carbonyl)octahydro-4H-pyrrolo[3,2-b]pyridin-4-yl)-6-chloro-8-fluoro-2-(((2R,7aS)-2-fluorotetrahydro-1H-pyrrolizin-7a(5H)-yl)methoxy)quinazolin-7-yl)-2-amino-7-fluorobenzo[b]thiophene-3-carbonitrile], the “Ratio of IC50 KRAS G12D vs. IC50 KRAS G12S” value on K-Ras G12S is “A (A: indicates that the ratio of IC50 against KrasG12D vs. IC50 against KrasG12S is 1-fold or greater)”. In addition, the IC50 was at most 1 µM in the assay with GP2D cells (GP2D cells (K-Ras G12D)) and at most 0.5 µM in the assay on A549 cells (setting [3]). Also, the “ratio of IC50 against a G12D cell line to IC50 against a G12S cell line” value in the assay with A549 cells (K-Ras G12D cell line such as GP2D relative to K-Ras G12S cell line such as A549, greater than 1, 2, 3, 4, 5, 10, 15 or even greater, 8640 min) is on record as “greater than 1”.

As for `Cc1ncn(C(=O)N2C3CCC2CN(c2nc(OC[C@@]45CCCN4C[C@H](F)C5)nc4c(F)c(-c5ccc(F)c6sc(N)c(C#N)c56)c(Cl)cc24)C3)n1` [Compound A186, 2-amino-4-(6-chloro-8-fluoro-2-(((2R,7aS)-2-fluorotetrahydro-1H-pyrrolizin-7a(5H)-yl)methoxy)-4-(8-(3-methyl-1H-1,2,4-triazole-1-carbonyl)-3,8-diazabicyclo[3.2.1]octan-3-yl)quinazolin-7-yl)-7-fluorobenzo[b]thiophene-3-carbonitrile], the “Ratio of IC50 KRAS G12D vs. IC50 KRAS G12S” value at K-Ras G12S is “A (A: indicates that the ratio of IC50 against KrasG12D vs. IC50 against KrasG12S is 1-fold or greater)”. Moreover, the IC50 in the assay with GP2D cells (GP2d) was at most 1 µM; in the assay on A549 cells (setting [2]), 0.5 to 5 µM.

With `Cc1nc(C)n(C(=O)N2CC3(CCCN(c4nc(OC[C@@]56CCCN5C[C@H](F)C6)nc5c(F)c(-c6ccc(F)c7sc(N)c(C#N)c67)c(Cl)cc45)C3)C2)n1` [Compound A190, 2-amino-4-(6-chloro-4-(2-(3,5-dimethyl-1H-1,2,4-triazole-1-carbonyl)-2,6-diazaspiro[3.5]nonan-6-yl)-8-fluoro-2-(((2R,7aS)-2-fluorotetrahydro-1H-pyrrolizin-7a(5H)-yl)methoxy)quinazolin-7-yl)-7-fluorobenzo[b]thiophene-3-carbonitrile], on K-Ras G12S, the “Ratio of IC50 KRAS G12D vs. IC50 KRAS G12S” value is reported as “A (A: indicates that the ratio of IC50 against KrasG12D vs. IC50 against KrasG12S is 1-fold or greater)”. Further, the results for the IC50 in the assay with GP2D cells (GP2D cells (K-Ras G12D)) and in the assay on A549 cells (setting [1]) were 1 to 10 µM and 0.5 to 5 µM, respectively.

For `Nc1nc2c(-c3c(Cl)cc4c(N5C[C@H]6CC[C@@H](C5)N6C(=O)Nc5ccncn5)nc(OC[C@@]56CCCN5C[C@H](F)C6)nc4c3F)ccc(F)c2s1` [Compound A223, (1R,5S)-3-(7-(2-amino-7-fluorobenzo[d]thiazol-4-yl)-6-chloro-8-fluoro-2-(((2R,7aS)-2-fluorotetrahydro-1H-pyrrolizin-7a(5H)-yl)methoxy)quinazolin-4-yl)-N-(pyrimidin-4-yl)-3,8-diazabicyclo[3.2. 1]octane-8-carboxamide], the “Ratio of IC50 KRAS G12D vs. IC50 KRAS G12S” value on K-Ras G12S was “A (A: indicates that the ratio of IC50 against KrasG12D vs. IC50 against KrasG12S is 1-fold or greater)”. Further, the concentration for half-maximal inhibition (IC50) was at most 1 µM in the assay on GP2D cells (GP2d) and 0.5 to 5 µM in the assay on A549 cells (setting [2]).
